pEC50: −log10 of the molar value. Structures can show the parent of a compound that is named as a salt.

Here are results for 30 compounds from patent publication US20260374754A1, “N-((ISOQUINOLIN-6-YL)METHYL)-1H-PYRAZOLE-4-CARBOXAMIDE DERIVATIVES AS PLASMA KALLIKREIN INHIBITORS FOR THE TREATMENT OF HEREDITARY ANGIODEMA” (Takeda Pharmaceutical Company Limited, priority 2022, published 2026).

The target of one test is human activated kallikrein enzyme (Homo sapiens, UniProt P03952). The test is described as follows: Inhibition of human activated plasma kallikrein, fluorogenic PFR-AMC substrate, 500 pM enzyme format. In kind it is biochemical. To be noted: 500 pM activated kallikrein; 300 μM PFR-AMC; 30 min preincubation; 10 min room temperature; pH 7.5; read-out: Primary Dose Response Assay: Average EC50. In short, it runs like this: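 Using fluorogenic PFR-AMC at 300 μM, cleavage by 500 pM human activated kallikrein ran 10 min at room temperature, read at 460 nm emission (380 nm excitation). Enzyme and compounds were first preincubated 30 min in 20 mM Tris pH 7.5, 150 mM NaCl, 1 mM EDTA, 0.1% PEG-400, 0.1% Triton X-100.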
human activated kallikrein enzyme, sequence (P03952 391-638 limits assumed): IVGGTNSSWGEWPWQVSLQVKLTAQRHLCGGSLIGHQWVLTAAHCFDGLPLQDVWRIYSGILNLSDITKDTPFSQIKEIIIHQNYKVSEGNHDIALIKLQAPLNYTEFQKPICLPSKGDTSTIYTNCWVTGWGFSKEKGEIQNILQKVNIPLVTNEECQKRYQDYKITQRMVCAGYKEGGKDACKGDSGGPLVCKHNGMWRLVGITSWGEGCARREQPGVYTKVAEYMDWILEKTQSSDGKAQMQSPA
human activated kallikrein enzyme, sequence (P03952 20-390 partner limits assumed): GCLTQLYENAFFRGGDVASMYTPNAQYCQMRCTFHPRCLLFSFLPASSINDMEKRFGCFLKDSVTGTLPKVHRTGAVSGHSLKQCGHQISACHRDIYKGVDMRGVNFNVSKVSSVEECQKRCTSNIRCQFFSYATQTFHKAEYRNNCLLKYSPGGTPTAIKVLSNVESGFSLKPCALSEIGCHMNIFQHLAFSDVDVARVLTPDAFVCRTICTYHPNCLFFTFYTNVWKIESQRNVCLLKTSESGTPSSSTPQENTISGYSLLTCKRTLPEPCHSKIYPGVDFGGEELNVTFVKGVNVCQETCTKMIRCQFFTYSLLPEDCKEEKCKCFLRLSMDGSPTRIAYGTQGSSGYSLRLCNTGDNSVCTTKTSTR
For the compound `Cc1cc2c(Nc3cc4c(cn3)nnn4Cc3cn4cc(C5CC5)ccc4n3)nccc2c(C)c1CN` [Example 502, 6-((l2-azanyl)methyl)-N-(1-((6-cyclopropylinmidazo[1,2-a]pyridin-2-yl)methyl)-1H-[1,2,3]triazolo[4,5-c]pyridin-6-yl)-5,7-dimethylisoquinolin-1-amine], the negative-log EC50 (pEC50) was < 6.00. Same read-out and setting: with `Cc1cc2c(N)nccc2c(C)c1CNC(=O)c1cnn(Cc2ccc(CC(=O)N3C[C@@H]4[C@H](C3)[C@@H]4C(=O)O)cc2)c1` [Example 210, (1R,5S,6s)-3-(2-(4-((4-(((1-amino-5,7-dimethylisoquinolin-6-yl)methyl)carbamoyl)-1H-pyrazol-1-yl)methyl)phenyl)acetyl)-3-azabicyclo[3.1.0]hexane-6-carboxylic acid] the figure was 8.00 to 9.00. Same read-out and setting: the value for `Cc1cc2c(N)nccc2c(C)c1CNc1nccc2cn(Cc3nc4ccc(C5CC5)cn4n3)nc12` [Example 263, 6-(((2-((6-cyclopropyl-[1,2,4]triazolo[1,5-a]pyridin-2-yl)methyl)-2H-pyrazolo[3,4-c]pyridin-7-yl)amino)methyl)-5,7-dimethylisoquinolin-1-amine] was 8.00 to 9.00; that for `Cc1ccc2ncc(COc3cnnc(NCc4c(C)cc5c(N)nccc5c4C)c3)cc2c1` [Example 408, 5,7-dimethyl-6-(((5-((6-methylquinolin-3-yl)methoxy)pyridazin-3-yl)amino)methyl)isoquinolin-1-amine] was > 9.00; that for `Cc1cc(CNc2cc(NCc3c(C)cc4c(N)nccc4c3C)ncn2)cc(C)c1Cn1cccn1` [Example 367, N^4-(4-((1H-pyrazol-1-yl)methyl)-3,5-dimethylbenzyl)-N^6-((1-amino-5,7-dimethylisoquinolin-6-yl)methyl)pyrimidine-4,6-diamine] was > 9.00.

In the case of `Cc1ccc2cc(CNc3cc(NCc4c(C)cc5c(N)nccc5c4C)ncn3)ccc2n1` [Example 335, N^4-((1-amino-5,7-dimethylisoquinolin-6-yl)methyl)-N^6-((2-methylquinolin-6-yl)methyl)pyrimidine-4,6-diamine], the pEC50 is > 9.00.

Consider `COc1ccc2nc(Cn3cc(C(=O)NCc4c(C)cc5c(N)nccc5c4C)cn3)ncc2c1` [Example 126, N-((1-amino-5,7-dimethylisoquinolin-6-yl)methyl)-1-((6-methoxyquinazolin-2-yl)methyl)-1H-pyrazole-4-carboxamide], for which the negative logarithm of the EC50 (pEC50) is 7.00 to 8.00. For the compound `Cc1cc2c(N)nccc2c(C)c1CNc1cc(OCc2ccc(Cn3cccn3)cc2)c2c(c1)C(=O)N(C)C2` [Example I-468, 4-((4-((1H-pyrazol-1-yl)methyl)benzyl)oxy)-6-(((1-amino-5,7-dimethylisoquinolin-6-yl)methyl)amino)-2-methylisoindolin-1-one], the negative-log EC50 (pEC50) is 8.00 to 9.00. Same read-out and setting: with `Cc1cc2c(N)nccc2c(C)c1CNc1cc(OCc2ccc(Cc3ccn(C)n3)cc2)cnn1` [Example 439, 5,7-dimethyl-6-(((5-((4-((1-methyl-1H-pyrazol-3-yl)methyl)benzyl)oxy)pyridazin-3-yl)amino)methyl)isoquinolin-1-amine] the figure was > 9.00. Same read-out and setting: the value for `Cc1cc2c(N)nccc2c(C)c1CNc1cc(OCc2ccc(CN3CCOCC3=O)cc2)ncn1` [Example 302, 4-(4-(((6-(((1-amino-5,7-dimethylisoquinolin-6-yl)methyl)amino)pyrimidin-4-yl)oxy)methyl)benzyl)morpholin-3-one, trifluoroacetic acid salt] was 8.00 to 9.00; that for `Cc1cc2c(N)nccc2c(C)c1CNC(=O)c1cnn(Cc2cnc3ccc(Br)cc3c2)c1` [Example 70, N-((1-amino-5,7-dimethylisoquinolin-6-yl)methyl)-1-((6-bromoquinolin-3-yl)methyl)-1H-pyrazole-4-carboxamide] was > 9.00; that for `Nc1nccc2cc(CNc3cc(OCc4ccc(Cn5cccn5)cc4)ncn3)c(C(F)(F)F)cc12` [Example 535, 6-(((6-((4-((1H-pyrazol-1-yl)methyl)benzyl)oxy)pyrimidin-4-yl)amino)methyl)-7-(trifluoromethyl)isoquinolin-1-amine] was 6.00 to 7.00. Take `Cc1cc2c(N)nccc2c(C)c1CNC(=O)c1cnn(Cc2cn3c(C)c(Br)ccc3n2)c1` [Example 145, N-((1-amino-5,7-dimethylisoquinolin-6-yl)methyl)-1-((6-bromo-5-methylimidazo[1,2-a]pyridin-2-yl)methyl)-1H-pyrazole-4-carboxamide]: the pEC50 was > 9.00.

On to `Cc1cc2c(N)nccc2c(C)c1CNc1cc(OCc2cccc(-n3ccccc3=O)c2)cnn1` [Example 435, 1-(3-(((6-(((1-amino-5,7-dimethylisoquinolin-6-yl)methyl)amino)pyridazin-4-yl)oxy)methyl)phenyl)pyridin-2(1H)-one], for which the pEC50 is 8.00 to 9.00. With `Cc1ccc(Cn2cc(C(=O)NCc3c(C)cc4c(N)nccc4c3C)cn2)cc1C(F)(F)F` [Example 36, N-((1-amino-5,7-dimethylisoquinolin-6-yl)methyl)-1-(4-methyl-3-(trifluoromethyl)benzyl)-1H-pyrazole-4-carboxamide], the negative logarithm of the EC50 (pEC50) was 8.00 to 9.00. With `Cc1cc2c(N)nccc2c(C)c1CNc1cc(N(Cc2ccc(Cn3cccn3)cc2C(F)(F)F)N=O)ncn1` [Example 381, N-(4-((1H-pyrazol-1-yl)methyl)-2-(trifluoromethyl)benzyl)-N-(6-(((1-amino-5,7-dimethylisoquinolin-6-yl)methyl)amino)pyrimidin-4-yl)nitrous amide], the pEC50 was 7.00 to 8.00.

Consider `Cc1cc2c(N)nccc2c(C)c1CNc1cc(OCc2cnc3ccc(F)cc3c2)cnn1` [Example 415, 6-(((5-((6-fluoroquinolin-3-yl)methoxy)pyridazin-3-yl)amino)methyl)-5,7-dimethylisoquinolin-1-amine], for which the pEC50 was > 9.00. `Cc1cc2c(N)nccc2c(C)c1CNC(=O)c1cnn(Cc2nc3ccccc3n2C)c1` [Example 75, N-((1-amino-5,7-dimethylisoquinolin-6-yl)methyl)-1-((1-methyl-1H-benzo[d]imidazol-2-yl)methyl)-1H-pyrazole-4-carboxamide]: the negative logarithm of the EC50 (pEC50) is 6.00 to 7.00. As for `Cc1cc2c(N)nccc2c(C)c1CNC(=O)c1cnn(Cc2cccnc2)c1` [Example 88, N-((1-amino-5,7-dimethylisoquinolin-6-yl)methyl)-1-(pyridin-3-ylmethyl)-1H-pyrazole-4-carboxamide], the pEC50 is 7.00 to 8.00.

Take `C=Cc1cnc2ccc(Cn3cc(C(=O)NCc4c(C)cc5c(N)nccc5c4C)cn3)cc2c1` [Example 123, N-((1-amino-5,7-dimethylisoquinolin-6-yl)methyl)-1-((3-vinylquinolin-6-yl)methyl)-1H-pyrazole-4-carboxamide]: the negative-log EC50 (pEC50) is > 9.00.

Consider `Cc1cc2c(N)nccc2c(C)c1CNc1cc(NCc2ccc(Cc3cnccn3)cc2)ncn1` [Example 338, N^4-((1-amino-5,7-dimethylisoquinolin-6-yl)methyl)-N^6-(4-(pyrazin-2-ylmethyl)benzyl)pyrimidine-4,6-diamine], for which the pEC50 was 8.00 to 9.00. In the case of `Cc1cc2c(N)nccc2c(C)c1CNc1cc(NCc2ccc(Cc3ncnn3C)cc2)ncn1` [Example 342, N^4-((1-amino-5,7-dimethylisoquinolin-6-yl)methyl)-N^6-(4-((1-methyl-1H-1,2,4-triazol-5-yl)methyl)benzyl)pyrimidine-4,6-diamine], the pEC50 was > 9.00. With `CCOC(=O)Cc1ccc(Cn2cc(C(=O)NCc3c(C)cc4c(N)nccc4c3C)cn2)cc1` [Example 55, ethyl 2-(4-((4-(((1-amino-5,7-dimethylisoquinolin-6-yl)methyl)carbamoyl)-1H-pyrazol-1-yl)methyl)phenyl)acetate], the negative logarithm of the EC50 (pEC50) is 8.00 to 9.00.

`Cc1cc2c(N)nccc2c(C)c1CNC(=O)c1cnn(Cc2cc(C(F)(F)F)cc(C(F)(F)F)c2)c1` [Example 95, N-((1-amino-5,7-dimethylisoquinolin-6-yl)methyl)-1-(3,5-bis(trifluoromethyl)benzyl)-1H-pyrazole-4-carboxamide]: the negative logarithm of the EC50 (pEC50) was 7.00 to 8.00. For the compound `Cc1cc2c(N)nccc2c(C)c1CNC(=O)c1cn(Cc2ccc(Cn3cccn3)cc2)nc1C(F)(F)F` [Example 185, 1-(4-((1H-pyrazol-1-yl)methyl)benzyl)-N-((1-amino-5,7-dimethylisoquinolin-6-y1)methyl)-3-(trifluoromethyl)-1H-pyrazole-4-carboxamide], the negative logarithm of the EC50 (pEC50) was > 9.00. As to `Cc1cc2c(N)nccc2c(C)c1CNc1cc(NCc2ccc(OCC(=O)N3CCCCC3)cc2)ncn1` [Example 346, 2-(4-(((6-(((1-amino-5,7-dimethylisoquinolin-6-yl)methyl)amino)pyrimidin-4-yl)amino)methyl)phenoxy)-1-(piperidin-1-yl)ethan-1-one], the pEC50 is 8.00 to 9.00.

Consider `Cc1cc2c(N)nccc2c(C)c1CNc1cc(OCc2ccc3nc(C)c(C)nc3c2)cnn1` [Example 418, 6-(((5-((2,3-dimethylquinoxalin-6-yl)methoxy)pyridazin-3-yl)amino)methyl)-5,7-dimethylisoquinolin-1-amine, formic acid salt], for which the negative logarithm of the EC50 (pEC50) is > 9.00. Same read-out and setting: with `CCOC(=O)CCc1cc(C2CC2)cc2cc(COc3cc(NCc4c(C)cc5c(N)nccc5c4C)ncn3)nn12` [Example 270, ethyl 3-(2-(((6-(((1-amino-5,7-dimethylisoquinolin-6-yl)methyl)amino)pyrimidin-4-yl)oxy)methyl)-5-cyclopropylpyrazolo[1,5-a]pyridin-7-yl)propanoate] the figure was 8.00 to 9.00; with `Cc1cc2c(N)nccc2c(C)c1CNC(=O)c1cnn(Cc2ccccc2C#N)c1` [Example 32, N-((1-amino-5,7-dimethylisoquinolin-6-yl)methyl)-1-(2-cyanobenzyl)-1H-pyrazole-4-carboxamide], 6.00 to 7.00.

Staying with this test, now noted: Primary Dose Response Assay: Average EC50, 500 pM activated kallikrein; 300 μM PFR-AMC; 30 min preincubation; 10 min room temperature; pH 7.5.
For the compound `Cc1c(CNC(=O)c2cnn(Cc3ccccc3)c2)c(C)c2ccnc(N)c2c1C` [Example 170, N-((1-amino-5,7,8-trimethylisoquinolin-6-yl)methyl)-1-benzyl-1H-pyrazole-4-carboxamide], the pEC50 is < 6.00.
